Values of other authors in patent publication US7083802B2, “Treatment of ocular disease” (Advanced Ocular Systems Limited, priority 2003, dated 2006).

Experiments:
[1] = reported in co-pending application Ser. No. 10/247,220

C=CC[C@@H]1/C=C(\C)C[C@H](C)C[C@H](OC)[C@H]2O[C@@](O)(C(=O)C(=O)N3CCCC[C@H]3C(=O)O[C@H](/C(C)=C/[C@@H]3CC[C@@H](O)[C@H](OC)C3)[C@H](C)[C@@H](O)CC1=O)[C@H](C)C[C@@H]2OC [tacrolimus]
Clinical effect in atopic dermatitis (topical, doses 0.03%–0.3%, after 2–3 weeks treatment): significant clinical improvement | Adverse effects of topical administration versus control (treatment of dermatoses, concentrations up to 0.3%): no significant difference in effects between treated and control groups | Dose for administration without substantial toxicity [1]: 250 µg
